Consider ten compounds from publication PMC11726654, “Discovery of MDI-114215: A Potent and Selective LIMK Inhibitor To Treat Fragile X Syndrome” (Journal of Medicinal Chemistry, 2024).

A value given as a limit tells only on which side of the number the result lay.

The nature of series [1]: Microsomal stability. Conditions: human, microsomes, pH 7.4.
Series [2] can be described thus: Caco-2 permeability and efflux. Conditions: human, Caco-2. Background: Caco-2 cells form a polarised layer with tight junctions and transporters.
Series [3] in a line: Microsomal stability. Particulars: for microsomal CLint at 0.5 h, 2 µM / microsomal CLint at 2 μM: rat, microsomes, pH 7.4; for Microsomal CLint Rat: rat microsomes, 2 μM compound.
Series [4] is described as follows: In vivo PK, i.v. dosing. Conditions: male, Sprague-Dawley, rat, plasma.
Experimental: A satellite group of three animals were also administered i.v. test compound (dosed at 1 mg/kg in 10% DMSO/20% Cremophor/70% saline) and after 1 h, the animals culled and brain samples immediately prepared by homogenization in H2O and protein precipitation in MeCN. Bioanalysis on plasma and brain samples were performed using a UHPLC-tandem mass spectrometry using electrospray ionization.
The target in series [5] is LIMK1 (Homo sapiens, UniProt P53667). The experiment in a line: RapidFire mass spectrometry kinase assay (cofilin phosphorylation). It is filed as biochemical. Particulars: non-phosphorylated LIMK1; mean ± SEM; read-out: Enzymatic (RapidFire) pIC50 LIMK1 (converted).
Series [6] addresses LIMK2 (Homo sapiens, UniProt P53671). The description is as above. It is filed as biochemical. Conditions: non-phosphorylated LIMK2; mean ± SEM; read-out: Enzymatic (RapidFire) pIC50 LIMK2 (converted).

Chain of LIMK1 (P53667 whole entry): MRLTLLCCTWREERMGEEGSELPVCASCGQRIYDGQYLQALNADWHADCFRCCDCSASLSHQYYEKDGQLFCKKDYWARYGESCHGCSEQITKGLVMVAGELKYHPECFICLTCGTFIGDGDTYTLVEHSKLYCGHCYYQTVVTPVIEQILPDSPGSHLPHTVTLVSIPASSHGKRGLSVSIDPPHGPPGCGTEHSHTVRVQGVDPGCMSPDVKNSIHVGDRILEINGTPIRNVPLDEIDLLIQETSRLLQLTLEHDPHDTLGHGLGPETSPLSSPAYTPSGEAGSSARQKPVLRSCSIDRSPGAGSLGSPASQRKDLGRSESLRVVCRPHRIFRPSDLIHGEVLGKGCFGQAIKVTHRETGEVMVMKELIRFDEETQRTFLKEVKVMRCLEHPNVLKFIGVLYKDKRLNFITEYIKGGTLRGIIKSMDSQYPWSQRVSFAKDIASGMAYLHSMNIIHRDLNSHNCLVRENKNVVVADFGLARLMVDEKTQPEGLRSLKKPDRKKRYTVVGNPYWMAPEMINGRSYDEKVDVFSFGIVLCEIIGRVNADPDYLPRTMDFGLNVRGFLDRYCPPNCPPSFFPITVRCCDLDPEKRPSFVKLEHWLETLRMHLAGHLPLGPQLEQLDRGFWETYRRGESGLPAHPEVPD
Chain of LIMK2 (P53671 whole entry): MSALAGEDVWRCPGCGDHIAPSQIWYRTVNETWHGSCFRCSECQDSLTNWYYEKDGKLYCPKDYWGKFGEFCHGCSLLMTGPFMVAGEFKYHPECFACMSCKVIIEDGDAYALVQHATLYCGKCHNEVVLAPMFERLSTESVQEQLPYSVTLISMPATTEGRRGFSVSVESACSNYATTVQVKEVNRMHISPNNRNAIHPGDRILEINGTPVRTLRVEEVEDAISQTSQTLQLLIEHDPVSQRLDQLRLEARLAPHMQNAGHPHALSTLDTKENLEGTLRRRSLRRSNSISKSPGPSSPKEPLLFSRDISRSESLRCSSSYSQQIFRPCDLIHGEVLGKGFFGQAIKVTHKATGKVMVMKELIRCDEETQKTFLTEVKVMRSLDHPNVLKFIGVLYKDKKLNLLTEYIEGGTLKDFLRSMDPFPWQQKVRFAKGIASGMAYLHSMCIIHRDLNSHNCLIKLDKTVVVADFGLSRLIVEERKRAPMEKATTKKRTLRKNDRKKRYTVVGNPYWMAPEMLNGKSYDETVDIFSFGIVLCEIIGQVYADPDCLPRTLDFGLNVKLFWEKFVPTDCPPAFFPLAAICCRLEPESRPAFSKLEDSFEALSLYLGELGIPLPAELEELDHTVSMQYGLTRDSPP

`O=C(c1ccc(S(=O)(=O)Nc2ccccc2)cc1)N(Cc1ccc(NC2COC2)cn1)CC1CC1` [Compound 76, N-(Cyclopropylmethyl)-N-[[5-(oxetan-3-ylamino)-2-pyridyl]methyl]-4-(phenylsulfamoyl)benzamide]: the results for the intrinsic clearance (microsomal CLint) at 0.5 h, 2 µM in series [1] and in series [3] were 71 µL/min/mg and 22 µL/min/mg, respectively. In addition, the apparent permeability (Papp) (in general, a coefficient for how fast a substance crosses the barrier) in series [2] is 1.7 ×10⁻⁶ cm/s.

As for `N#CCCN(Cc1ccncc1)C(=O)c1ccc(S(=O)(=O)Nc2ccccc2)cc1` [Compound 55, N-(2-Cyanoethyl)-4-(phenylsulfamoyl)-N-(4-pyridylmethyl)benzamide], in series [1], the microsomal CLint (as a rule, a measure of how fast metabolising enzymes remove a compound, apart from limits set by blood flow) at 2 μM was 32 µL/min/mg. Besides, in series [4] (intravenous), the intrinsic clearance (CLint scaled) (usually the rate of metabolic loss divided by the concentration) was 16.5 mL/min/kg. Also, in series [4] (iv, 0.2 mg/kg), the AUC(0-inf) (as a rule, total exposure, with the tail of the curve extrapolated) at 1 h came to 217 ng·h/mL; the Vd – broadly, the apparent volume that relates the amount in the body to the concentration in plasma or blood – at 1 h turned out to be 0.4 L/kg; the half-life (commonly how long it takes for the measured level to halve) at 1 h was 18 min. The compound also gave an intrinsic clearance (microsomal CLint) at 2 μM in series [3] of 81 µL/min/mg.

In series [1], `O=C(c1ccc(S(=O)(=O)Nc2ccccc2)cc1)N(Cc1ccc(F)cn1)CC1CC1` [Compound 71, N-(Cyclopropylmethyl)-N-((5-fluoropyridin-2-yl)methyl)-4-(N-phenylsulfamoyl)benzamide] showed an intrinsic metabolic clearance (microsomal CLint) at 0.5 h, 2 µM of 282 µL/min/mg. This compound gave a Papp in series [2] of 21.1 ×10⁻⁶ cm/s. Further, in series [3], the “Microsomal CLint Rat” value is “Rapid”.

With `O=C(c1ccc(S(=O)(=O)Nc2ccccc2)cc1)N(CCCn1ccnc1)Cc1ccccc1` [Compound 56, N-Benzyl-N-(3-imidazol-1-ylpropyl)-4-(phenylsulfamoyl)benzamide], the intrinsic metabolic clearance (microsomal CLint) at 2 μM in series [1] worked out at 80 µL/min/mg; in series [3], 158 µL/min/mg. Further, the IC50 was 347 nM in series [5] and 18.2 nM in series [6].

For `CCCCN(Cc1ccccc1OC)C(=O)c1ccc(S(=O)(=O)Nc2ccccc2)cc1` [Compound 42, N-Butyl-N-(2-methoxybenzyl)-4-(N-phenylsulfamoyl)benzamide], the results for the microsomal CLint at 2 μM in series [1] and in series [3] were 812 µL/min/mg and 827 µL/min/mg, respectively. In addition, the figures for the IC50 in series [5] and in series [6] were 2570 nM and 1170 nM, respectively.

As to `CCCCN(Cc1ccc(CCC(=O)O)cc1)C(=O)c1ccc(S(=O)(=O)Nc2ccccc2)cc1` [Compound 48, 3-(4-((N-Butyl-4-(N-phenylsulfamoyl)benzamido)methyl)phenyl)propanoic acid], the microsomal CLint at 2 μM in series [1] is 15 µL/min/mg; in series [3], 18 µL/min/mg. For the same compound, the IC50 was 166 nM in series [5] and 20.9 nM in series [6].

For the compound `CCCCN(Cc1ccncc1)C(=O)c1ccc(S(=O)(=O)Nc2ccccc2)cc1` [Compound 43, N-Butyl-4-(N-phenylsulfamoyl)-N-(pyridin-4-ylmethyl)benzamide], the microsomal CLint at 2 μM in series [1] was found to be 144 µL/min/mg; in series [3], 484 µL/min/mg. Besides, the IC50 in series [5] is 977 nM; in series [6], 19.1 nM.

As to `Cc1cc(CN(CC2CC2)C(=O)c2ccc(S(=O)(=O)Nc3ccccc3)cc2)ncc1NCCO` [Compound 83, N-(Cyclopropylmethyl)-N-[[5-(2-hydroxyethylamino)-4-methyl-2-pyridyl]methyl]-4-(phenylsulfamoyl)benzamide], the results for the microsomal CLint at 0.5 h, 2 µM in series [1] and in series [3] were 130 µL/min/mg and 171 µL/min/mg, respectively. For the same compound, the apparent permeability (Papp) in series [2] was found to be 0.5 ×10⁻⁶ cm/s.

As for `CCCCN(Cc1cccnc1)C(=O)c1ccc(S(=O)(=O)Nc2ccccc2)cc1` [Compound 44, N-Butyl-4-(N-phenylsulfamoyl)-N-(pyridin-3-ylmethyl)benzamide], in series [1], the microsomal CLint at 2 μM amounted to 234 µL/min/mg. Besides, the results for the IC50 in series [5] and in series [6] were 8130 nM and 1510 nM, respectively. In addition, the “Microsomal CLint Rat” value in series [3] is reported as “Rapid”.

For `CCCCN(Cc1ccc(N2CCNCC2)cc1)C(=O)c1ccc(S(=O)(=O)Nc2ccccc2)cc1` [Compound 49, N-Butyl-4-(N-phenylsulfamoyl)-N-(4-(piperazin-1-yl)benzyl)benzamide], the intrinsic metabolic clearance (microsomal CLint) at 2 μM stood at 50 µL/min/mg in series [1] and 56 µL/min/mg in series [3]. For the same compound, the IC50 in series [5] was above 10000 nM; in series [6], 2290 nM.
